# Laboratory results as given in ChEMBL document CHEMBL1201862, “PubChem BioAssay data set” (2004).
# Counter-ions that a name gives are not always drawn.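 Results reflect a 48-hour exposure of cells in 96-well plates to compound at five concentrations. At the GI50, growth is halved.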 Calls of active or inactive are those of the source. Rule as the data show it: active = GI50 up to about 1.1 µM and inactive = higher.
# Assays:
# Experiment in all cases: NCI tumour cell line growth inhibition, 48 h
# 786-0 = system: 786-0
# A549 = system: A549
# ACHN = system: ACHN
# BT-549 = system: BT-549
# CAKI-1 = system: CAKI-1
# CCRF-CEM = system: CCRF-CEM
# COLO 205 = system: COLO 205
# DU-145 = system: DU-145
# EKVX = system: EKVX
# HCC 2998 = system: HCC 2998
# HCT-116 = system: HCT-116
# HCT-15 = system: HCT-15
# HL-60 = system: HL-60
# HOP-62 = system: HOP-62
# HOP-92 = system: HOP-92
# HT-29 = system: HT-29
# Hs-578T = system: Hs-578T
# IGROV-1 = system: IGROV-1
# K562 = system: K562
# KM12 = system: KM12
# LOX IMVI = system: LOX IMVI
# M14 = system: M14
# MCF7 = system: MCF7
# MDA-MB-231 = system: MDA-MB-231
# MDA-MB-435 = system: MDA-MB-435
# MDA-N = system: MDA-N
# MOLT-4 = system: MOLT-4
# Malme-3M = system: Malme-3M
# NCI-H226 = system: NCI-H226
# NCI-H23 = system: NCI-H23
# NCI-H460 = system: NCI-H460
# NCI-H522 = system: NCI-H522
# NCI/ADR-RES = system: NCI/ADR-RES
# OVCAR-3 = system: OVCAR-3
# OVCAR-4 = system: OVCAR-4
# OVCAR-5 = system: OVCAR-5
# OVCAR-8 = system: OVCAR-8
# PC-3 = system: PC-3
# RPMI-8226 = system: RPMI-8226
# RXF 393 = system: RXF 393
# SF-268 = system: SF-268
# SF-295 = system: SF-295
# SF-539 = system: SF-539
# SK-MEL-28 = system: SK-MEL-28
# SK-MEL-2 = system: SK-MEL-2
# SK-MEL-5 = system: SK-MEL-5
# SK-OV-3 = system: SK-OV-3
# SN12C = system: SN12C
# SNB-19 = system: SNB-19
# SNB-75 = system: SNB-75
# SR = system: SR
# SW-620 = system: SW-620
# TK-10 = system: TK-10
# U-251 = system: U-251
# UACC-257 = system: UACC-257
# UACC-62 = system: UACC-62
# UO-31 = system: UO-31
# A498 = system: A498
smiles,measurement,setting,value
COc1cccc(O)c1-c1cc(=O)c2c(O)c(OC)c(OC)c(OC)c2o1 [SKULLCAPFLAVONE II],GI50,786-0,42.6 µM (inactive)
same,GI50,A549,29 µM (inactive)
same,GI50,ACHN,38.9 µM (inactive)
same,GI50,BT-549,27.2 µM (inactive)
same,GI50,CAKI-1,22.8 µM (inactive)
same,GI50,CCRF-CEM,34.5 µM (inactive)
same,GI50,COLO 205,16.5 µM (inactive)
same,GI50,DU-145,16.4 µM (inactive)
same,GI50,EKVX,32.7 µM (inactive)
same,GI50,HCC 2998,7.59 µM (inactive)
same,GI50,HCT-116,32.1 µM (inactive)
same,GI50,HCT-15,18.5 µM
same,GI50,HL-60,20.4 µM (inactive)
same,GI50,HOP-62,17.5 µM (inactive)
same,GI50,HOP-92,22.1 µM (inactive)
same,GI50,HT-29,6.5 µM (inactive)
same,GI50,Hs-578T,35.9 µM (inactive)
same,GI50,IGROV-1,24.2 µM (inactive)
same,GI50,K562,14.5 µM (inactive)
same,GI50,KM12,12 µM (inactive)
same,GI50,LOX IMVI,30.2 µM (inactive)
same,GI50,M14,23.5 µM (inactive)
same,GI50,MCF7,27.3 µM (inactive)
same,GI50,MDA-MB-231,41 µM (inactive)
same,GI50,MDA-MB-435,10.3 µM (inactive)
same,GI50,MDA-N,12.9 µM (inactive)
same,GI50,MOLT-4,29.2 µM (inactive)
same,GI50,Malme-3M,36.4 µM (inactive)
same,GI50,NCI-H226,47.2 µM (inactive)
same,GI50,NCI-H23,24.9 µM (inactive)
same,GI50,NCI-H460,19.1 µM (inactive)
same,GI50,NCI-H522,22.7 µM (inactive)
same,GI50,NCI/ADR-RES,21.8 µM (inactive)
same,GI50,OVCAR-3,22.5 µM (inactive)
same,GI50,OVCAR-4,30.3 µM (inactive)
same,GI50,OVCAR-5,50.9 µM (inactive)
same,GI50,OVCAR-8,30.3 µM (inactive)
same,GI50,PC-3,15.3 µM (inactive)
same,GI50,RPMI-8226,18.7 µM (inactive)
same,GI50,RXF 393,14.1 µM (inactive)
same,GI50,SF-268,35.3 µM (inactive)
same,GI50,SF-295,21.1 µM (inactive)
same,GI50,SF-539,36.8 µM (inactive)
same,GI50,SK-MEL-28,35.8 µM (inactive)
same,GI50,SK-MEL-2,20.9 µM (inactive)
same,GI50,SK-MEL-5,19 µM (inactive)
same,GI50,SK-OV-3,28.4 µM (inactive)
same,GI50,SN12C,28 µM (inactive)
same,GI50,SNB-19,29.2 µM (inactive)
same,GI50,SNB-75,23 µM (inactive)
same,GI50,SR,4.82 µM (inactive)
same,GI50,SW-620,31.8 µM (inactive)
same,GI50,TK-10,44.8 µM (inactive)
same,GI50,U-251,31.6 µM (inactive)
same,GI50,UACC-257,27 µM (inactive)
same,GI50,UACC-62,14.7 µM (inactive)
same,GI50,UO-31,25.2 µM (inactive)
CC1(C)/C(=N\O)C2(OS(=O)(=O)C(F)(F)F)CCC1C2 (stereo not drawn),GI50,A498,> 100 µM (inactive)
same,GI50,ACHN,> 100 µM (inactive)
same,GI50,BT-549,> 100 µM (inactive)
same,GI50,CAKI-1,> 100 µM (inactive)
same,GI50,CCRF-CEM,> 100 µM (inactive)
same,GI50,EKVX,> 100 µM (inactive)
same,GI50,HCC 2998,> 100 µM (inactive)
same,GI50,HCT-15,> 100 µM
same,GI50,HL-60,12 µM (inactive)
same,GI50,HOP-92,> 100 µM (inactive)
same,GI50,KM12,> 100 µM (inactive)
same,GI50,MDA-MB-231,> 100 µM (inactive)
same,GI50,MDA-MB-435,60.1 µM (inactive)
same,GI50,MDA-N,> 100 µM (inactive)
same,GI50,MOLT-4,> 100 µM (inactive)
same,GI50,NCI-H226,70.8 µM (inactive)
same,GI50,NCI-H23,> 100 µM (inactive)
same,GI50,NCI-H460,> 100 µM (inactive)
same,GI50,NCI/ADR-RES,> 100 µM (inactive)
same,GI50,OVCAR-4,> 100 µM (inactive)
same,GI50,OVCAR-8,> 100 µM (inactive)
same,GI50,RPMI-8226,27.4 µM (inactive)
same,GI50,SF-268,> 100 µM (inactive)
same,GI50,SK-MEL-28,> 100 µM (inactive)
same,GI50,SN12C,> 100 µM (inactive)
same,GI50,SNB-19,> 100 µM (inactive)
same,GI50,SNB-75,> 100 µM (inactive)
same,GI50,SR,55.1 µM (inactive)
same,GI50,TK-10,> 100 µM (inactive)
same,GI50,U-251,> 100 µM (inactive)
same,GI50,UACC-257,> 100 µM (inactive)
same,GI50,UACC-62,> 100 µM (inactive)
same,GI50,UO-31,> 100 µM (inactive)
Cn1c2nc3ccccc3c-2cc2ccccc21 [NEOCRYPTOLEPINE HYDROCHLORIDE],GI50,CCRF-CEM,4.4 µM (inactive)
same,GI50,COLO 205,2.76 µM (inactive)
same,GI50,DU-145,12.8 µM (inactive)
same,GI50,EKVX,3.98 µM (inactive)
same,GI50,HL-60,3.62 µM (inactive)
same,GI50,HT-29,4.69 µM (inactive)
same,GI50,IGROV-1,4.6 µM (inactive)
same,GI50,K562,4.3 µM (inactive)
same,GI50,LOX IMVI,5.07 µM (inactive)
same,GI50,MCF7,3.21 µM (inactive)
same,GI50,MDA-MB-435,5.65 µM (inactive)
same,GI50,NCI-H460,3.29 µM (inactive)
same,GI50,OVCAR-3,6.4 µM (inactive)
same,GI50,PC-3,5.45 µM (inactive)
same,GI50,SF-295,6.34 µM (inactive)
same,GI50,SF-539,5.74 µM (inactive)
same,GI50,SR,2.93 µM (inactive)
same,GI50,SW-620,5.79 µM (inactive)
